Results reported in ChEMBL document CHEMBL1201862, “PubChem BioAssay data set” (2004).
Several values for one entry are separate records, joined by “and”; a condition that tells them apart may be missing. Identical values can stand only once.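 Dose response: 5 concentrations. Exposure: 48 h. Format: 96-well plates. Endpoint: linear interpolation; highest concentration if not reached. GI50 is the concentration that inhibits growth by half.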 Activity calls are given as the source filed them. Rule as the data show it: active = GI50 up to about 1.1 µM and inactive = higher.

What was measured:
Experiment in all cases: inhibition of tumour cell growth, NCI panel, 48 h
EKVX = test system: EKVX
M14 = test system: M14
BT-549 = test system: BT-549
SN12C = test system: SN12C
UO-31 = test system: UO-31
MDA-N = test system: MDA-N
OVCAR-4 = test system: OVCAR-4
KM-20L2 = test system: KM-20L2
OVCAR-8 = test system: OVCAR-8
UACC-257 = test system: UACC-257
MDA-MB-435 = test system: MDA-MB-435
A549 = test system: A549
HOP-62 = test system: HOP-62
HCC 2998 = test system: HCC 2998
KM12 = test system: KM12
HT-29 = test system: HT-29
NCI-H522 = test system: NCI-H522
Malme-3M = test system: Malme-3M
SW-620 = test system: SW-620
NCI/ADR-RES = test system: NCI/ADR-RES

Row | SMILES | GI50 (EKVX) | GI50 (M14) | GI50 (BT-549) | GI50 (SN12C) | GI50 (UO-31) | GI50 (MDA-N) | GI50 (OVCAR-4) | GI50 (KM-20L2) | GI50 (OVCAR-8) | GI50 (UACC-257) | GI50 (MDA-MB-435) | GI50 (A549) | GI50 (HOP-62) | GI50 (HCC 2998) | GI50 (KM12) | GI50 (HT-29) | GI50 (NCI-H522) | GI50 (Malme-3M) | GI50 (SW-620) | GI50 (NCI/ADR-RES)
1 | NC1=NC(=O)/C(=C2\CCNC(=O)c3[nH]c(Br)cc32)N1 [HYMENIALDISINE] | > 100 µM (inactive) and > 71.3 µM (inactive) | 9.89 µM (inactive) | 10.4 µM (inactive) | 19.5 µM (inactive) and 11.3 µM (inactive) | 3.02 µM (inactive) and 5.6 µM (inactive) | 1.9 µM (inactive) | 15.3 µM (inactive) and 17.5 µM (inactive) | 70.1 µM (inactive) | 7.21 µM (inactive) and 10.5 µM (inactive) | 23.7 µM (inactive) and 18.3 µM (inactive) | 5.58 µM (inactive) | > 70.3 µM (inactive) | 40.8 µM (inactive) and 31.9 µM (inactive) | 57.9 µM (inactive) and 55.3 µM (inactive) | – | – | – | – | – | –
2 | OCC1C(/C=C/c2ccoc2)ON2CCCC12 (configuration not stated) | > 100 µM (inactive) | > 100 µM (inactive) | – | > 100 µM (inactive) | > 100 µM (inactive) | – | > 100 µM (inactive) | > 100 µM (inactive) | > 100 µM (inactive) | > 100 µM (inactive) | – | > 100 µM (inactive) | > 100 µM (inactive) | > 100 µM (inactive) | > 100 µM (inactive) | > 100 µM (inactive) | > 100 µM (inactive) | 20.8 µM (inactive) | > 100 µM (inactive) | –
3 | COc1ccc(-c2c(C3=NCCN3)nnn2-c2ccccc2)cc1 | > 100 µM (inactive) | > 100 µM (inactive) | – | > 100 µM (inactive) | > 100 µM (inactive) | – | > 100 µM (inactive) | > 100 µM (inactive) | > 100 µM (inactive) | > 100 µM (inactive) | – | > 100 µM (inactive) | > 100 µM (inactive) | > 100 µM (inactive) | > 100 µM (inactive) | 91.2 µM (inactive) | > 100 µM (inactive) | > 100 µM (inactive) | > 100 µM (inactive) | –
4 | COc1cc2c(cc1OC)C(SC)C(=O)N(Cc1cccc(OC)c1OC)CC2 (configuration not stated) | 4.7 µM (inactive) | 2.28 µM (inactive) | 0.755 µM (active) | 5.61 µM (inactive) | 6.47 µM (inactive) | 0.297 µM (active) | 17.5 µM (inactive) | 1.19 µM (inactive) | 4.29 µM (inactive) | 2.95 µM (inactive) | 0.353 µM (active) | 1.73 µM (inactive) | 2.75 µM (inactive) | 2.46 µM (inactive) | 2.65 µM (inactive) | 1.03 µM (active) | 0.64 µM (active) | 3.15 µM (inactive) | 1.49 µM (inactive) | 2.73 µM (inactive)
5 | COc1ccc(OC(C)C(=O)O)c2c1CCCC2=O (configuration not stated) | > 100 µM (inactive) | > 100 µM (inactive) | – | > 100 µM (inactive) | > 100 µM (inactive) | – | > 100 µM (inactive) | < 0.01 µM (active) | > 100 µM (inactive) | > 100 µM (inactive) | – | > 100 µM (inactive) | > 100 µM (inactive) | > 100 µM (inactive) | > 100 µM (inactive) | > 100 µM (inactive) | > 100 µM (inactive) | > 100 µM (inactive) | > 100 µM (inactive) | –
6 | O/N=C1/C(=C/c2ccc(Cl)cc2)CCCC1C(NO)c1ccc(Cl)cc1 (configuration not stated) | 30.1 µM (inactive) | 16.2 µM (inactive) | – | 19.3 µM (inactive) | 16.6 µM (inactive) | – | 15.6 µM (inactive) | 17.6 µM (inactive) | 21.1 µM (inactive) | 17.2 µM (inactive) | – | 20.3 µM (inactive) | 22.8 µM (inactive) | 15.5 µM (inactive) | 19.9 µM (inactive) | 19.2 µM (inactive) | 20.3 µM (inactive) | 26.7 µM (inactive) | 30.2 µM (inactive) | –
7 | CCOc1ccccc1/N=N/c1c(-c2ccccc2)nn(C(=O)CC(=O)Nc2cccc(C)c2)c1-c1ccccc1 | 56.6 µM (inactive) | > 100 µM (inactive) | – | > 100 µM (inactive) | 35.2 µM (inactive) | – | > 100 µM (inactive) | > 100 µM (inactive) | > 100 µM (inactive) | > 100 µM (inactive) | – | > 100 µM (inactive) | > 100 µM (inactive) | 22.7 µM (inactive) | 94 µM (inactive) | 39.6 µM (inactive) | > 100 µM (inactive) | > 100 µM (inactive) | > 100 µM (inactive) | –
8 | CC(C)(Oc1ccc(/C=C/C(=O)c2ccccc2)cc1)C(=O)Nc1c(Cl)cccc1Cl | > 10 µM (inactive) | > 10 µM (inactive) | – | > 10 µM (inactive) | > 10 µM (inactive) | – | > 10 µM (inactive) | > 10 µM (inactive) | > 10 µM (inactive) | > 10 µM (inactive) | – | > 10 µM (inactive) | > 10 µM (inactive) | > 10 µM (inactive) | 4.07 µM (inactive) | > 10 µM (inactive) | 4.67 µM (inactive) | > 10 µM (inactive) | 7.08 µM (inactive) | –
9 | CSC1=Nc2ccccc2N=C(c2ccccc2)C1 | 54.8 µM (inactive) | > 100 µM (inactive) | – | > 100 µM (inactive) | 38 µM (inactive) | – | > 100 µM (inactive) | 35.4 µM (inactive) | 61.7 µM (inactive) | 33.1 µM (inactive) | – | 80.2 µM (inactive) | > 100 µM (inactive) | 62.2 µM (inactive) | 36 µM (inactive) | 46.7 µM (inactive) | 37.6 µM (inactive) | > 100 µM (inactive) | 15.1 µM (inactive) | –
10 | Cc1cccc(C)c1NC(=O)C1C(=O)N(c2c(C)cccc2C)C(=O)/C1=N\NC(N)=S (configuration not stated) | > 100 µM (inactive) | > 100 µM (inactive) | – | > 100 µM (inactive) | > 100 µM (inactive) | – | > 100 µM (inactive) | 82.8 µM (inactive) | > 100 µM (inactive) | > 100 µM (inactive) | – | > 100 µM (inactive) | > 100 µM (inactive) | > 100 µM (inactive) | > 100 µM (inactive) | > 100 µM (inactive) | > 100 µM (inactive) | > 100 µM (inactive) | > 100 µM (inactive) | –
11 | COc1cc(/C=C/C(=O)c2cccc3ccccc23)cc(OC)c1OC | 15 µM (inactive) | 5.93 µM (inactive) | – | 3.39 µM (inactive) | 16.8 µM (inactive) | – | 6.41 µM (inactive) | 3.94 µM (inactive) | 1.98 µM (inactive) | 6.37 µM (inactive) | – | 8.18 µM (inactive) | 6.82 µM (inactive) | 15 µM (inactive) | 4.06 µM (inactive) | 4.27 µM (inactive) | 4.68 µM (inactive) | 11.4 µM (inactive) | 2.75 µM (inactive) | –
12 | Cc1ccc(S(=O)(=O)ON=C2CC(c3ccccc3)N(C)C(c3ccccc3)C2)cc1 (configuration not stated) | 36.2 µM (inactive) and 35.2 µM (inactive) | 19.4 µM (inactive) and 17.2 µM (inactive) | – | 23.6 µM (inactive) | 15.6 µM (inactive) and 16.9 µM (inactive) | – | 18.7 µM (inactive) and 17.4 µM (inactive) | 23 µM (inactive) and 18.4 µM (inactive) | 17.6 µM (inactive) and 16.9 µM (inactive) | 18.9 µM (inactive) and 19.3 µM (inactive) | – | 23.2 µM (inactive) and 20.6 µM (inactive) | 29 µM (inactive) and 29.8 µM (inactive) | 16.6 µM (inactive) | 16.4 µM (inactive) | 20 µM (inactive) and 20.9 µM (inactive) | 14.2 µM (inactive) and 12.1 µM (inactive) | 25.5 µM (inactive) and 21.1 µM (inactive) | 17.9 µM (inactive) and 15.5 µM (inactive) | –
13 | COC1(OC)C2(Cl)C3=CCCC=C3C1(Cl)C(Cl)=C2Cl | 16.1 µM (inactive) | 13.2 µM (inactive) | – | 28.7 µM (inactive) | 21.7 µM (inactive) | – | 18.2 µM (inactive) | 23.2 µM (inactive) | 32.2 µM (inactive) | 28.4 µM (inactive) | – | 27.2 µM (inactive) | 26.3 µM (inactive) | 29.2 µM (inactive) | 34.3 µM (inactive) | 20.6 µM (inactive) | 12.9 µM (inactive) | 16.7 µM (inactive) | 17.5 µM (inactive) | –
14 | COc1ccc(-c2c(C3=NCCCN3)nnn2-c2ccc([N+](=O)[O-])cc2)cc1 | > 100 µM (inactive) | > 100 µM (inactive) | – | > 100 µM (inactive) | > 100 µM (inactive) | – | > 100 µM (inactive) | > 100 µM (inactive) | > 100 µM (inactive) | > 100 µM (inactive) | – | > 100 µM (inactive) | > 100 µM (inactive) | > 100 µM (inactive) | > 100 µM (inactive) | > 100 µM (inactive) | > 100 µM (inactive) | > 100 µM (inactive) | > 100 µM (inactive) | –
15 | CCCCCCC(=O)CC(=O)C(=O)Nc1ccccc1C | > 100 µM (inactive) | > 100 µM (inactive) | – | > 100 µM (inactive) | > 100 µM (inactive) | – | > 100 µM (inactive) | > 100 µM (inactive) | > 100 µM (inactive) | > 100 µM (inactive) | – | > 100 µM (inactive) | > 100 µM (inactive) | > 100 µM (inactive) | > 100 µM (inactive) | > 100 µM (inactive) | > 68.5 µM (inactive) | > 100 µM (inactive) | > 39.7 µM (inactive) | –
